We go through three compounds from PMC3438379 (Journal of enzyme inhibition and medicinal chemistry, 2011).

The subject of data set [1] is HIV-1-infected MT-4 cells. The following applies: ref [9]; cited from earlier work.
Data set [2] is described as follows: Relative aqueous solubility by stepwise water dilution of DMSO solution. Type of data set: physicochemical. The following applies: 50 μL DMSO solution of 5 mg mL^−1, water added in 50 μL steps.
The conditions of data set [3]: cited from earlier work.
The target of data set [4] is HIV-1 protease (Human immunodeficiency virus type 1 group M subtype B, UniProt P04585). Conditions: read-out: IC50 (inhibition of HIV-1 protease), cited from earlier work.

Read-outs that look alike come from different tables or passages of the source.

As usually defined, the IC50 is the concentration needed to halve the response being measured.

For the compound `C=C(C)[C@@H]1CC[C@]2(C(=O)O)CC[C@]3(C)[C@H](CC[C@@H]4[C@@]5(C)CC[C@H](OC(=O)CC(C)(C)C(=O)O)C(C)(C)[C@@H]5CC[C@]43C)[C@@H]12` [3-O-(3′,3′-dimethylsuccinyl) betulinic acid], in data set [1], the “activity against HIV-induced cytopathic effects” value is “high activity”.

Take `C=C(C)[C@@H]1CC[C@]2(C(=O)O)CC[C@]3(C)[C@H](CC[C@@H]4[C@@]5(C)CC[C@H](O)C(C)(C)[C@@H]5CC[C@]43C)[C@@H]12` [compound 1, 3β-hydroxy-lup-20(29)-en-28-oic acid]: the “Water solubility (dilution steps required to achieve clear solution)” value in data set [2] is recorded as less than 2 x. Also, in data set [3] (25°C, ref [23]), the “solubility in DMSO” value is reported as 5 % (w/v) and the solubility in ethanol is listed as 1 % (w/v). In data set [3] (at 25°C, ref [22]), the Water solubility was 0.02 µg/mL. In addition, in data set [3] (room temperature, ref [22]), the solubility in water entry is reported as “about 0.02 μg mL^−1”. In addition, in data set [4] (ref [18]), the IC50 is 9 µM. Besides, the IC50 in data set [4] (ref [19]) is 2.5 µM.

For `C=C(C)[C@@H]1CC[C@]2(C(=O)[O-])CC[C@]3(C)[C@H](CC[C@@H]4[C@@]5(C)CC[C@H](O)C(C)(C)[C@@H]5CC[C@]43C)[C@@H]12.C[N+](C)(C)CCO` [compound 8, cholinium betulinate], the “Water solubility (dilution steps required to achieve clear solution)” value in data set [2] is more than 100x.
